Test results: EP3241555A1, “USE OF PYROPHOSPHATE ION ANALOGUES FOR THE TREATMENT OF HPV INFECTION” (Agencia Pública Empresarial Sanitaria Costa Del Sol, priority 2014, dated 2016)
Several values for one entry are separate records, joined by “and”; a condition that tells them apart may be missing. Identical values can stand only once.

Legend:
[1] = test system: HPV; details: used topically, master formulation as a cream; different types of viral warts; cited from earlier work
[2] = molecular target: HIV reverse transcriptase (HIV, RT) (Human immunodeficiency virus type 1 group M subtype B, UniProt P04585); details: read-out: ID50; cited from earlier work
[3] = test system: HPV; assay: Expanded trial in 28 patients with warts treated with topical foscarnet; format: in vivo, human
Description: A total of 28 patients, from which 64.3% are female patients and 35.7% male patients to whom treatment was administered, were studied. The mean age was […] (6-64) and with a median age of 16 years.
It is important to point out that 96.4% of the patients had received prior treatments without any results, where the most common treatments are cryotherapy involving 78.6% of said patients and topical keratolytic drugs involving 67.9% of them.
Most of the patients (71.4%) applied the treatment 2 times a day and in 78.6% of the cases, the area of application was banded for the night. The rest of the patients applied the treatment 1 or 3 times/day.
The mean duration of the treatment was 11.57 (3-28) weeks.

Structure (SMILES): Nc1ccn(C[C@@H](CO)OCP(=O)(O)O)c(=O)n1 [cidofovir]
- cure rates [1]: high cure rates

Structure (SMILES): O=C(O)P(=O)(O)O [Trisodium phosphonoformate]
- IC50 [2]: ~1000 nM

Structure (SMILES): O=C(O)P(=O)(O)O [foscarnet, phosphonoformic acid]
- Adverse effects to treatment: No, Percentage ([3]; 28 patients): 89.3%
- Adverse effects to treatment: No, Percentage valid ([3]; 28 patients): 89.3%
- Adverse effects to treatment: Yes, Percentage valid ([3]; 28 patients): 10.7%
- Response to treatment: Complete, Percentage ([3]; 28 patients): 39.3%
- Response to treatment: Complete, Percentage valid ([3]; 28 patients): 39.3%
- Response to treatment: No, Percentage ([3]; 28 patients): 28.6%
- Response to treatment: No, Percentage valid ([3]; 28 patients): 28.6%
- Response to treatment: Partial, Percentage ([3]; 28 patients): 32.1%
- Response to treatment: Partial, Percentage valid ([3]; 28 patients): 32.1%
- percentage of response ([3]; 28 patients, full plus partial response): 71.4%
- Adverse effects to treatment: Yes, Percentage ([3]; 28 patients, very mild localized adverse effects (erythema or slight irritation/itch)): 10.7%
- Time effect starts (weeks), Maximum ([3]; N valid 28): 16 weeks
- Time effect starts (weeks), Mean ([3]; N valid 28): 5.25 (± 4.98) weeks and 5.25 weeks
- Time effect starts (weeks), Median ([3]; N valid 28): 4.00 weeks
- Time effect starts (weeks), Minimum ([3]; N valid 28): 0 weeks
- Adverse effects to treatment: No, Frequency ([3]; number of patients out of 28): 25
- Response to treatment: Complete, Frequency ([3]; number of patients out of 28): 11
- Response to treatment: No, Frequency ([3]; number of patients out of 28): 8
- Response to treatment: Partial, Frequency ([3]; number of patients out of 28): 9
- Recurrence: No, Frequency ([3]; number of patients out of 28, 1 lost): 27
- Adverse effects to treatment: Yes, Frequency ([3]; number of patients out of 28, very mild localized adverse effects (erythema or slight irritation/itch)): 3
- Recurrence: No, Percentage valid ([3]; of 27 valid patients): 100.0%
- Recurrence: No, Percentage ([3]; of 28 patients, 1 lost): 96.4%
